Data reported in patent publication US11352350B2, “IRAK degraders and uses thereof” (Kymera Therapeutics, Inc., priority 2018, dated 2022).
Like-named read-outs stand apart in the source and are kept apart here.

Target: IRAK4 (Homo sapiens (Human), UniProt Q9NWZ3)
Experiment: IRAK4 MSD degradation in OCI-LY10
Format: cell-based
Procedure: Degradation of IRAK4 in OCI-LY10 was quantitatively measured using Meso Scale Discovery technology. […] Compounds were then added to the assay plates with a final top concentration of 1 to 10 μM in a 1:3 dilution series with total of 8 doses. The assay plates were then incubated for 4 to 24 hours at 37° C. under 5% CO2. […] To prepare MSD assay plates (Meso Scale Discovery Catalog number L15XA-3), the plates were coated with […] capture antibody (mouse Anti-IRAK4 antibody [2H9], ab119942) in PBS, at 40 μL/well. […] Cell lysates were then added to MSD assay plates and the plates were incubated at room temperature for 1 hour. The plates were then washed 3 times with 150 μL/well TBST buffer and 25 μL/well primary detection antibody (rabbit Anti-IRAK4 antibody [Y279], from Abcam. Catalog number ab32511, […]). The assay plates were then incubated at room temperature for 1 hour, washed 3 times with 150 μL/well TBST buffer and 25 µL/well secondary detection antibody, SULFO-TAG anti-rabbit antibody were added (anti rabbit antibody from Meso Scale Discovery, Catalog number R32AB-1, 1 μg/mL). The assay plates were then incubated at room temperature for 1 hour, washed 3 times with 150 μL/well TB ST buffer, and 150 μL/well MSD reading buffer (Meso Scale Discovery catalog number R92TC-2) was added. The plates were then analyzed by a MSD reader (Meso Scale Discovery, Model Quick Plex SQ 120). The data was then analyzed by software Prism 7.0 from GraphPad and the dose-depended IRAK4 degradation were fit using a three-parameter logistic equation to calculate DC50.

[1] = OCI-LY10, 4 hrs, MSD, read-out: IRAK4 MSD degradation in OCI-LY10 at 4 hrs: Average external-Abs DC50
[2] = OCI-LY10, 24 hrs, MSD, read-out: IRAK4 MSD degradation in OCI-LY10 at 24 hrs: Average external-Abs DC50

Chain of IRAK4 (Q9NWZ3 whole entry): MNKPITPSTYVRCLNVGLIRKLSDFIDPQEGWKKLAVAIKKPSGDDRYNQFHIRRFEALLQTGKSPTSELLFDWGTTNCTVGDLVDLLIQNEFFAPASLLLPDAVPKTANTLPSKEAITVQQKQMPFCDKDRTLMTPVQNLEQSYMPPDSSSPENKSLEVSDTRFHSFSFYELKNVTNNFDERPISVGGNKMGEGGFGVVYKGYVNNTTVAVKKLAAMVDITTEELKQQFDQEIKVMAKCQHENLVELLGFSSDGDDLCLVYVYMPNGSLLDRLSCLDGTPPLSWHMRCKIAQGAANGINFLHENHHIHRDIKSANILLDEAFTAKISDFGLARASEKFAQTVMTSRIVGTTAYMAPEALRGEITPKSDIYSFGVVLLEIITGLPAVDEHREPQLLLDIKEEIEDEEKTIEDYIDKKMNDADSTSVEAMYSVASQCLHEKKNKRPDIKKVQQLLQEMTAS

Structure (SMILES)	DC50 [1]	further results
CN(CCOCC1CCN(c2ccc3c(c2)n(C)c(=O)n3C2CCC(=O)NC2=O)CC1)C[C@H]1CC[C@H](n2cc(NC(=O)c3coc(-c4ccnc(NCC5CC5)c4)n3)c(C(F)F)n2)CC1 (some centres unmarked) [I-56]	100 to 1000 nM	–
O=C1CCC(n2c3cccc(CCCOCCOCCNC[C@H]4CC[C@H](n5cc(NC(=O)c6coc(-c7ccnc(NCC8CC8)c7)n6)c(C(F)F)n5)CC4)c3c3cccnc32)C(=O)N1 (some centres unmarked) [I-93]	10 to 100 nM	–
O=C1CCC(N2C(=O)c3ccc(NCC4CC5(CCN(C[C@H]6CC[C@H](n7cc(NC(=O)c8cnn9ccc(N%10C[C@H]%11C[C@@H]%10CO%11)nc89)c(C(F)F)n7)CC6)CC5)C4)cc3C2=O)C(=O)N1 (some centres unmarked) [I-556]	–	DC50 (OCI-LY10, 4 hrs, read-out: IRAK4 MSD degradation in OCI-LY10 at 4 hrs: DC50): 10 to 100 nM; DC50 (OCI-LY10, 24 hrs, read-out: IRAK4 MSD degradation in OCI-LY10 at 24 hrs: DC50): < 10 nM
CN(C[C@H]1CN(Cc2cccc3c2n(C)c(=O)n3C2CCC(=O)NC2=O)CCO1)C[C@H]1CC[C@H](n2cc(NC(=O)c3coc(-c4ccnc(NCC5CC5)c4)n3)c(C(F)F)n2)CC1 (some centres unmarked) [I-77]	10 to 100 nM	–
CN(CCOCCNCc1ccc2c(c1)n(C)c(=O)n2C1CCC(=O)NC1=O)C(=O)[C@H]1CC[C@H](n2cc(NC(=O)c3coc(-c4ccnc(NCC5CC5)c4)n3)c(C(F)F)n2)CC1 (some centres unmarked) [I-55]	< 10 nM	–
CN(CCOC(=O)NCc1ccc2c(c1)n(C)c(=O)n2C1CCC(=O)NC1=O)C[C@H]1CC[C@H](n2cc(NC(=O)c3coc(-c4ccnc(NCC5CC5)c4)n3)c(C(F)F)n2)CC1 (some centres unmarked) [I-91]	100 to 1000 nM	–
Cn1c(=O)n(C2CCC(=O)NC2=O)c2cccc(CCCOCCOCCOCCOCC(=O)N3CCN([C@H]4CC[C@H](Nc5ncnn6ccc(C7CCOCC7)c56)CC4)CC3)c21 (some centres unmarked) [I-19]	> 1000 nM	DC50 [2]: > 1000 nM
Cn1c(=O)n(C2CCC(=O)NC2=O)c2ccc(CN3CCC(CCO[C@H]4C[C@H](N(C)C[C@H]5CC[C@H](n6cc(NC(=O)c7coc(-c8ccnc(NCC9CC9)c8)n7)c(C(F)F)n6)CC5)C4)CC3)cc21 (some centres unmarked) [I-238]	10 to 100 nM	–
Cn1c(=O)n(C2CCC(=O)NC2=O)c2cccc(CCCO[C@@H]3CCN(C[C@H]4CC[C@H](n5cc(NC(=O)c6coc(-c7ccnc(NCC8CC8)c7)n6)c(C(F)F)n5)CC4)C3)c21 (some centres unmarked) [I-73]	< 10 nM	–
Cn1c(=O)n(C2CCC(=O)NC2=O)c2cccc(CN3CCC(OC4CCN(C[C@H]5CC[C@H](n6cc(NC(=O)c7coc(-c8ccnc(NCC9CC9)c8)n7)c(C(F)F)n6)CC5)CC4)CC3)c21 (some centres unmarked) [I-256]	< 10 nM	–
CN(CCCOCCCc1ccc2c(c1)n(C)c(=O)n2C1CCC(=O)NC1=O)C[C@H]1CC[C@H](n2cc(NC(=O)c3coc(-c4ccnc(NCC5CC5)c4)n3)c(C(C)(C)O)n2)CC1 (some centres unmarked) [I-83]	100 to 1000 nM	–
Cn1c(=O)n(C2CCC(=O)NC2=O)c2cccc(CN3CCC(CCN4CCC(n5cc(NC(=O)c6coc(-c7ccnc(NCC8CC8)c7)n6)c(C(F)F)n5)CC4)CC3)c21 (centres unmarked) [I-264]	< 10 nM	DC50 [2]: < 10 nM
O=C1CCC(n2c3ccc(CCCN4CC5(CCN(C(=O)[C@H]6CC[C@H](n7cc(NC(=O)c8cnn9ccc(N%10C[C@H]%11C[C@@H]%10CO%11)nc89)c(C(F)F)n7)CC6)CC5)C4)cc3c3cccnc32)C(=O)N1 (some centres unmarked) [I-388]	10 to 100 nM	–
CN(CC[C@@H]1CN(CCCc2ccc3c(c2)n(C)c(=O)n3C2CCC(=O)NC2=O)CCO1)C[C@H]1CC[C@H](n2cc(NC(=O)c3coc(-c4ccnc(NCC5CC5)c4)n3)c(C(F)F)n2)CC1 (some centres unmarked) [I-97]	< 10 nM	–
Cn1c(=O)n(C2CCC(=O)NC2=O)c2ccc(CCCN3CCO[C@@H](CNC[C@H]4CC[C@H](n5cc(NC(=O)c6coc(-c7ccnc(NCC(F)(F)F)c7)n6)c(C(C)(C)O)n5)CC4)C3)cc21 (some centres unmarked) [I-60]	10 to 100 nM	–
CN1CCN(c2ccn3ncc(C(=O)Nc4cn([C@H]5CC[C@H](CN6CCC(OCCCc7cccc8c7n(C)c(=O)n8C7CCC(=O)NC7=O)CC6)CC5)nc4C(F)F)c3c2)CC1 (some centres unmarked) [I-258]	10 to 100 nM	DC50 [2]: 10 to 100 nM
Cn1c(=O)n(C2CCC(=O)NC2=O)c2cccc(CCCOCCCCCN3CCC(n4cc(NC(=O)c5coc(-c6ccnc(NCC7CC7)c6)n5)c(C(F)F)n4)CC3)c21 (centres unmarked) [I-262]	< 10 nM	DC50 [2]: < 10 nM
Cn1c(=O)n(C2CCC(=O)NC2=O)c2cccc(CN3CCC(CCCN4CCC(n5cc(NC(=O)c6coc(-c7ccnc(NCC8CC8)c7)n6)c(C(F)F)n5)CC4)CC3)c21 (centres unmarked) [I-253]	10 to 100 nM	–
